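Interpolation was linear, between the two tested concentrations surrounding the appropriate level; five concentrations were tested over 48 hours in 96-well plates. GI50: concentration for 50% inhibition of growth. TGI marks complete inhibition of growth.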
Columns and labels:
Assay in all cases: NCI anticancer screen, dose series, 48 h
COLO 205 colon = tested on: COLO 205 colon
DU-145 prostate = tested on: DU-145 prostate
MDA-MB-231 breast = tested on: MDA-MB-231 breast
SN12C renal = tested on: SN12C renal
SW-620 colon = tested on: SW-620 colon
U251 CNS = tested on: U251 CNS
UACC-257 melanoma = tested on: UACC-257 melanoma
UACC-62 melanoma = tested on: UACC-62 melanoma
EKVX NSCLC = tested on: EKVX NSCLC
SK-MEL-2 melanoma = tested on: SK-MEL-2 melanoma

COc1ccc(C(=O)c2sc3nc(-c4ccccc4OC)ccc3c2N)cc1OC was tested, and the GI50 (COLO 205 colon) was 8.9 µM, the TGI (COLO 205 colon) was > 100 µM and the GI50 (DU-145 prostate) was 27.9 µM. For the same molecule, the TGI (DU-145 prostate) was > 100 µM, the GI50 (MDA-MB-231 breast) was 3.44 µM and the TGI (MDA-MB-231 breast) was 42.3 µM. The GI50 (SN12C renal) was 7.95 µM, the TGI (SN12C renal) was > 100 µM and the GI50 (SW-620 colon) was > 100 µM. For the same molecule, the TGI (SW-620 colon) was > 100 µM, the GI50 (U251 CNS) was 14.2 µM and the TGI (U251 CNS) was > 100 µM. For the same molecule, the GI50 (UACC-257 melanoma) was 6.05 µM, the TGI (UACC-257 melanoma) was > 100 µM and the GI50 (UACC-62 melanoma) was 4.89 µM. For the same molecule, the TGI (UACC-62 melanoma) was > 100 µM.

CC1CC2(S(=O)(=O)c3ccccc3)ON1CC2S(=O)(=O)c1ccccc1 (centres undefined) was tested, and the TGI (COLO 205 colon) was > 100 µM, the TGI (EKVX NSCLC) was > 100 µM and the TGI (SK-MEL-2 melanoma) was > 100 µM. The TGI (SN12C renal) was > 100 µM, the TGI (SW-620 colon) was > 100 µM and the TGI (U251 CNS) was > 100 µM. For the same molecule, the TGI (UACC-257 melanoma) was > 100 µM and the TGI (UACC-62 melanoma) was > 100 µM.

With COc1ccc(-c2cnnn2-c2nonc2-n2cccc2)cc1OC the GI50 (COLO 205 colon) was 3.64 µM, the TGI (COLO 205 colon) was 14.8 µM and the GI50 (DU-145 prostate) was 7.95 µM. The TGI (DU-145 prostate) was > 100 µM, the GI50 (MDA-MB-231 breast) was 5.35 µM and the TGI (MDA-MB-231 breast) was 69.4 µM. For the same molecule, the GI50 (SN12C renal) was 5.71 µM, the TGI (SN12C renal) was > 100 µM and the GI50 (SW-620 colon) was 3.61 µM. The TGI (SW-620 colon) was > 100 µM, the GI50 (UACC-257 melanoma) was 9.61 µM and the TGI (UACC-257 melanoma) was > 100 µM. The GI50 (UACC-62 melanoma) was 5.42 µM and the TGI (UACC-62 melanoma) was > 100 µM.

For COc1cc2c(c3c1c(=O)c1ccccc1n3C)C=CC(C)(C)O2, the TGI (COLO 205 colon) was > 100 µM, the TGI (SK-MEL-2 melanoma) was > 100 µM and the TGI (SN12C renal) was > 100 µM. For the same molecule, the TGI (SW-620 colon) was > 100 µM, the TGI (U251 CNS) was > 100 µM and the TGI (UACC-257 melanoma) was > 100 µM. For the same molecule, the TGI (UACC-62 melanoma) was > 100 µM.

CCOc1cccc2c1N[S@@](=O)S2 was tested, and the TGI (EKVX NSCLC) was > 100 µM, the TGI (SK-MEL-2 melanoma) was > 100 µM and the TGI (SN12C renal) was > 100 µM. The TGI (SW-620 colon) was > 100 µM, the TGI (U251 CNS) was > 100 µM and the TGI (UACC-257 melanoma) was > 100 µM. The TGI (UACC-62 melanoma) was > 100 µM.

CCOc1ccc(N=C2NC(=O)C(CC(=O)Nc3ccccc3[N+](=O)[O-])S2)cc1 (centres undefined) was tested, and the TGI (EKVX NSCLC) was > 100 µM, the TGI (SK-MEL-2 melanoma) was > 100 µM and the TGI (SN12C renal) was > 100 µM. For the same molecule, the TGI (SW-620 colon) was > 100 µM, the TGI (U251 CNS) was > 100 µM and the TGI (UACC-257 melanoma) was > 100 µM. The TGI (UACC-62 melanoma) was > 100 µM.

Work on Cn1c(=O)n(C)c2cc(CNCCNc3ccnc4cc(Cl)ccc34)ccc21 yielded a GI50 (COLO 205 colon) of 17.2 µM, a TGI (COLO 205 colon) of 35.8 µM and a GI50 (DU-145 prostate) of 38.5 µM. For the same molecule, the TGI (DU-145 prostate) was > 100 µM, the GI50 (MDA-MB-231 breast) was 11.2 µM and the TGI (MDA-MB-231 breast) was 45.2 µM. The GI50 (SK-MEL-2 melanoma) was 22.6 µM, the TGI (SK-MEL-2 melanoma) was 52.5 µM and the GI50 (SN12C renal) was 45.7 µM. For the same molecule, the TGI (SN12C renal) was > 100 µM, the GI50 (SW-620 colon) was 34.6 µM and the TGI (SW-620 colon) was > 100 µM. The GI50 (U251 CNS) was 22.1 µM, the TGI (U251 CNS) was 72.1 µM and the GI50 (UACC-257 melanoma) was 17.6 µM. For the same molecule, the TGI (UACC-257 melanoma) was 33.3 µM, the GI50 (UACC-62 melanoma) was 17.7 µM and the TGI (UACC-62 melanoma) was 35.6 µM.

With COc1ccc(/C=C(\NC(=O)c2ccccc2)c2nc3ccccc3[nH]2)cc1OC the TGI (COLO 205 colon) was > 100 µM, the TGI (EKVX NSCLC) was > 100 µM and the TGI (SK-MEL-2 melanoma) was > 100 µM. The TGI (SN12C renal) was > 100 µM, the TGI (SW-620 colon) was > 100 µM and the TGI (U251 CNS) was > 100 µM. For the same molecule, the TGI (UACC-257 melanoma) was > 100 µM and the TGI (UACC-62 melanoma) was > 100 µM.

With C1=Cc2nc1c(-c1ccccc1)c1ccc([nH]1)c(-c1ccccc1)c1nc(c(-c3ccccc3)c3ccc([nH]3)c2-c2ccccc2)C=C1 the TGI (COLO 205 colon) was > 100 µM, the TGI (EKVX NSCLC) was > 100 µM and the TGI (SK-MEL-2 melanoma) was > 100 µM. The TGI (SN12C renal) was > 100 µM, the TGI (SW-620 colon) was > 100 µM and the TGI (U251 CNS) was > 100 µM. For the same molecule, the TGI (UACC-257 melanoma) was > 100 µM and the TGI (UACC-62 melanoma) was > 100 µM.

For COc1ccc(O)c(C(=O)CCC(=O)O)c1, the TGI (COLO 205 colon) was > 100 µM, the TGI (EKVX NSCLC) was > 100 µM and the TGI (SK-MEL-2 melanoma) was > 100 µM. For the same molecule, the TGI (SN12C renal) was > 100 µM, the TGI (SW-620 colon) was > 100 µM and the TGI (U251 CNS) was > 100 µM. The TGI (UACC-257 melanoma) was 29 µM and the TGI (UACC-62 melanoma) was > 100 µM.

With Clc1ccccc1CN1COc2c(ccc3cccnc23)C1 the TGI (COLO 205 colon) was 24.8 µM, the TGI (EKVX NSCLC) was 15.9 µM and the TGI (SK-MEL-2 melanoma) was 6.63 µM. The TGI (SN12C renal) was 23.2 µM, the TGI (SW-620 colon) was 12.4 µM and the TGI (U251 CNS) was 19.1 µM. The TGI (UACC-257 melanoma) was 8.2 µM and the TGI (UACC-62 melanoma) was 8.56 µM.

For C=C1C(=O)OC2C1CCC(C)C1(O)C=CC(=O)C21C (centres undefined), the TGI (COLO 205 colon) was > 10 µM, the TGI (EKVX NSCLC) was > 10 µM and the TGI (SK-MEL-2 melanoma) was > 10 µM. For the same molecule, the TGI (SN12C renal) was > 10 µM, the TGI (SW-620 colon) was > 10 µM and the TGI (U251 CNS) was > 10 µM. The TGI (UACC-62 melanoma) was > 10 µM.

For COc1ccc(Nc2nc(Nc3cc(C)[nH]n3)c3cc(OC)c(OC)cc3n2)cc1, the GI50 (DU-145 prostate) was 1.03 µM, the TGI (DU-145 prostate) was 2.24 µM and the GI50 (EKVX NSCLC) was 1.48 µM. For the same molecule, the TGI (EKVX NSCLC) was 2.94 µM, the GI50 (MDA-MB-231 breast) was 1.35 µM and the TGI (MDA-MB-231 breast) was 2.9 µM. It also gave a GI50 (SK-MEL-2 melanoma) of 1.77 µM, a TGI (SK-MEL-2 melanoma) of 3.56 µM and a GI50 (SW-620 colon) of 0.314 µM. It also gave a TGI (SW-620 colon) of 1.02 µM, a GI50 (UACC-62 melanoma) of 1.71 µM and a TGI (UACC-62 melanoma) of 3.39 µM.

In the case of CCCC(=O)N[C@H]1CCc2cc(OC)c(OC)c(OC)c2-c2ccc(SC)c(=O)cc21, the TGI (COLO 205 colon) is reported as < 0.01 µM, the TGI (DU-145 prostate) is reported as < 0.01 µM and the TGI (EKVX NSCLC) is reported as > 100 µM. The TGI (SN12C renal) was > 91.8 µM, the TGI (SW-620 colon) was > 100 µM and the TGI (U251 CNS) was 3.74 µM. The TGI (UACC-257 melanoma) was > 74.1 µM and the TGI (UACC-62 melanoma) was > 100 µM.

COC(=O)C(=O)C(CC(=O)Nc1ccc(C)cc1)C(=O)OC (centres undefined) was tested, and the TGI (EKVX NSCLC) was > 100 µM, the TGI (SK-MEL-2 melanoma) was > 100 µM and the TGI (SN12C renal) was > 100 µM. For the same molecule, the TGI (SW-620 colon) was > 100 µM, the TGI (U251 CNS) was > 100 µM and the TGI (UACC-257 melanoma) was > 100 µM. The TGI (UACC-62 melanoma) was > 100 µM.

C=C1C(=O)C23[C@H](O)C1CC[C@H]2[C@]12COC3(O)[C@@H](O)[C@@H]1C(C)(C)CC[C@@H]2O showed a TGI (COLO 205 colon) of 2.14 µM, a TGI (EKVX NSCLC) of 34.6 µM and a TGI (SK-MEL-2 melanoma) of 11 µM. The TGI (SN12C renal) was 35.3 µM, the TGI (SW-620 colon) was 4.86 µM and the TGI (U251 CNS) was 18.9 µM. The TGI (UACC-257 melanoma) was 29.5 µM and the TGI (UACC-62 melanoma) was 23.6 µM.

CN(C)c1ccc(/C=C(\NC(=O)c2ccccc2)c2nc3ccc4c(c3[nH]2)C(=O)c2ccccc2C4=O)cc1 was tested, and the TGI (COLO 205 colon) was > 100 µM, the TGI (EKVX NSCLC) was > 100 µM and the TGI (SK-MEL-2 melanoma) was > 100 µM. For the same molecule, the TGI (SN12C renal) was > 100 µM, the TGI (SW-620 colon) was > 100 µM and the TGI (U251 CNS) was > 100 µM. The TGI (UACC-257 melanoma) was > 100 µM and the TGI (UACC-62 melanoma) was > 100 µM.

Reference: PubChem BioAssay (NCI)
